In ChEMBL document CHEMBL5375967 (J Med Chem, 2023):
Activity calls are given as the source filed them. The rule behind the calls is not given here.

Legend:
[1] = molecular target: T1, Voltage-gated inwardly rectifying potassium channel KCNH2 (Homo sapiens, UniProt Q12809)
in vivo [2] = conditions: Sprague-Dawley, rat, iv, 1 mg/kg
[3] = AUC (0 to infinity) in C57BL/6 mouse at 3 mg/kg, po measured upto 24 hrs by LC-MS/MS analysis; format: ADME, organism-based; design: time < 24 hrs, dose 3 mg/kg, route po; conditions: in vivo
[4] = molecular target: T2, Leukotriene A-4 hydrolase (Homo sapiens, UniProt P09960); experiment: Inhibition of LTA4H (unknown origin) using Arg-AMC as substrate preincubated with compound for 15 mins followed by substrate addition and measured after every 10 mins for 300 mins by fluorescence based assay
T2 sequence (P09960 whole entry): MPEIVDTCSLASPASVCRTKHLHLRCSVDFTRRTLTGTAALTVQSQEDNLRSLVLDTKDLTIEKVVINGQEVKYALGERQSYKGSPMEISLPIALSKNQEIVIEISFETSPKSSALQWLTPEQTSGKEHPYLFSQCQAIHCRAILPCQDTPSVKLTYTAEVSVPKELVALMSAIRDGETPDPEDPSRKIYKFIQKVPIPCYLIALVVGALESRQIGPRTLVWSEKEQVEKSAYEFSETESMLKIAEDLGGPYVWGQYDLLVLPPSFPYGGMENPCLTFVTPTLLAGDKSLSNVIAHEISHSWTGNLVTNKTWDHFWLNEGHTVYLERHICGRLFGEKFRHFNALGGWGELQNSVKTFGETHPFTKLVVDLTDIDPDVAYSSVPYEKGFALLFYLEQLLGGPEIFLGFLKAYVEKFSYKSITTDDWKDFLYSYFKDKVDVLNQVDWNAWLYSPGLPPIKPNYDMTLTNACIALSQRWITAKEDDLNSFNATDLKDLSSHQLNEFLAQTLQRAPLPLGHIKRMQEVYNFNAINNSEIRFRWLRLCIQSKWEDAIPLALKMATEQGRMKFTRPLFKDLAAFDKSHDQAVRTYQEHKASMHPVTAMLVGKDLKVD

[5] = Volume of distribution at steady state in dog at 1 mg/kg, iv measured upto 24 hrs by LC-MS/MS analysis; format: ADME, organism-based, Canis lupus familiaris; conditions: in vivo, read-out: Vdss
in vitro [6] = conditions: human, liver microsomes
[7] = Solubility of compound in FeSSIF at pH 6.8; format: physicochemical
in vitro [8] = conditions: mouse, liver microsomes
in vivo [9] = conditions: Sprague-Dawley, rat, iv, 1 mg/kg; remark: listed apart in the source
[10] = AUC (0 to infinity) in Wistar rat at 30 mg/kg, po measured upto 24 hrs by LC-MS/MS analysis; format: ADME, organism-based; design: dose 30 mg/kg, time < 24 hrs, route po; conditions: in vivo
[11] = Inhibition of arachidonic acid-stimulated LTB4 release in skin inflammation 129S2/SvPasCrl mouse model at 0.3 mg/kg, po pretreated with compound for 4 hrs followed by arachidonic acid stimulation and measured after 1 hr; format: functional
Mus musculus [12] = experiment: Antiarthritic activity in KRN passive serum-induced arthritis C57BL/6 mouse model assessed as reduction in cellularity at 0.1 to 10 mg/kg, po bid measured on day 7 at 2 hrs after first dose and 14 hrs after second dose; format: functional, organism-based; conditions: dose 0.1-10 mg/kg, time 7.0 day
[13] = Cmax in Wistar rat at 3 mg/kg, po measured upto 24 hrs by LC-MS/MS analysis; format: ADME, organism-based; design: dose 3 mg/kg, time < 24 hrs, route po; conditions: in vivo
[14] = molecular target: T1, Voltage-gated inwardly rectifying potassium channel KCNH2; remark: listed apart in the source
Mus musculus [15] = experiment: Antiarthritic activity in KRN passive serum-induced arthritis C57BL/6 mouse model assessed as reduction in paw swelling at 0.1 to 10 mg/kg, po bid measured on day 7 at 2 hrs after first dose and 14 hrs after second dose; format: functional, organism-based; conditions: dose 0.1-10 mg/kg, time 7.0 day
[16] = Oral bioavailability in Wistar rat at 30 mg/kg measured upto 24 hrs by LC-MS/MS analysis; format: ADME, organism-based; conditions: in vivo
[17] = Inhibition of arachidonic acid-stimulated LTB4 release in skin inflammation 129S2/SvPasCrl mouse model at 0.03 mg/kg, po pretreated with compound for 4 hrs followed by arachidonic acid stimulation and measured after 1 hr; format: functional; conditions: time 5 hrs
Mus musculus [18] = experiment: Antiarthritic activity in KRN passive serum-induced arthritis C57BL/6 mouse model assessed as reduction in neutrophil numbers at 0.1 to 10 mg/kg, po bid measured on day 7 at 2 hrs after first dose and 14 hrs after second dose; format: functional, organism-based; conditions: dose 0.1-10 mg/kg, time 7.0 day
in vivo [19] = conditions: Sprague-Dawley, rat, iv, 1 mg/kg; remark: listed apart in the source
[20] = Inhibition of arachidonic acid-stimulated LTB4 release in skin inflammation 129S2/SvPasCrl mouse model at 3 mg/kg, po pretreated with compound for 4 hrs followed by arachidonic acid stimulation and measured after 1 hr; format: functional; conditions: time 5 hrs
[21] = Metabolic stability in dog hepatocyte assessed as intrinsic clearance; format: ADME, cell-based, Canis lupus familiaris; conditions: hepatocytes
[22] = Half life in C57BL/6 mouse at 1 mg/kg, iv measured upto 24 hrs by LC-MS/MS analysis; format: ADME, organism-based; conditions: in vivo
in vivo [23] = conditions: C57BL/6, mouse, in vivo, po, 10 mg/kg
[24] = MRT in dog at 1 mg/kg, iv measured upto 24 hrs by LC-MS/MS analysis; format: ADME, organism-based, Canis lupus familiaris; conditions: in vivo
[25] = tested on: Leukotriene A4 hydrolase (Homo sapiens); experiment: Inhibition of LTB4 in calcium ionophore A23187-stimulated human PBMC cells at 1 uM pretreated with compound for 15 mins followed by calcium ionophore A23187 induction and measured after 2 hrs by LC-MS/MS analysis; conditions: time 135.0 min
in vivo [26] = conditions: Sprague-Dawley, rat, po, 3 mg/kg
[27] = AUC (0 to infinity) in dog at 3 mg/kg, po measured upto 24 hrs by LC-MS/MS analysis; format: ADME, organism-based, Canis lupus familiaris; design: time < 24 hrs, dose 3 mg/kg, route po; conditions: in vivo
Mus musculus [28] = experiment: Antiarthritic activity in KRN passive serum-induced arthritis C57BL/6 mouse model assessed as reduction in proteoglycan loss at 0.1 to 10 mg/kg, po bid measured on day 7 at 2 hrs after first dose and 14 hrs after second dose; format: functional, organism-based; conditions: dose 0.1-10 mg/kg, time 7.0 day
[29] = Clearance in dog at 1 mg/kg, iv measured upto 24 hrs by LC-MS/MS analysis; format: ADME, organism-based, Canis lupus familiaris; conditions: in vivo
[30] = molecular target: T1, Voltage-gated inwardly rectifying potassium channel KCNH2; remark: listed apart in the source
[31] = Inhibition of neutrophil influx in arachidonic acid-stimulated skin inflammation 129S2/SvPasCrl mouse model assessed as effect on MPO level in skin at 0.03 mg/kg, po pretreated with compound for 4 hrs followed by arachidonic acid stimulation and measured after 1 hr; format: functional; conditions: time 5 hrs
[32] = Drug concentration in blood of arachidonic acid-induced skin inflammation 129S2/SvPasCrl mouse model at 0.3 mg/kg, po measured after 4 hrs; format: ADME, organism-based; conditions: read-out: Ct

T1 sequence (Q12809 whole entry): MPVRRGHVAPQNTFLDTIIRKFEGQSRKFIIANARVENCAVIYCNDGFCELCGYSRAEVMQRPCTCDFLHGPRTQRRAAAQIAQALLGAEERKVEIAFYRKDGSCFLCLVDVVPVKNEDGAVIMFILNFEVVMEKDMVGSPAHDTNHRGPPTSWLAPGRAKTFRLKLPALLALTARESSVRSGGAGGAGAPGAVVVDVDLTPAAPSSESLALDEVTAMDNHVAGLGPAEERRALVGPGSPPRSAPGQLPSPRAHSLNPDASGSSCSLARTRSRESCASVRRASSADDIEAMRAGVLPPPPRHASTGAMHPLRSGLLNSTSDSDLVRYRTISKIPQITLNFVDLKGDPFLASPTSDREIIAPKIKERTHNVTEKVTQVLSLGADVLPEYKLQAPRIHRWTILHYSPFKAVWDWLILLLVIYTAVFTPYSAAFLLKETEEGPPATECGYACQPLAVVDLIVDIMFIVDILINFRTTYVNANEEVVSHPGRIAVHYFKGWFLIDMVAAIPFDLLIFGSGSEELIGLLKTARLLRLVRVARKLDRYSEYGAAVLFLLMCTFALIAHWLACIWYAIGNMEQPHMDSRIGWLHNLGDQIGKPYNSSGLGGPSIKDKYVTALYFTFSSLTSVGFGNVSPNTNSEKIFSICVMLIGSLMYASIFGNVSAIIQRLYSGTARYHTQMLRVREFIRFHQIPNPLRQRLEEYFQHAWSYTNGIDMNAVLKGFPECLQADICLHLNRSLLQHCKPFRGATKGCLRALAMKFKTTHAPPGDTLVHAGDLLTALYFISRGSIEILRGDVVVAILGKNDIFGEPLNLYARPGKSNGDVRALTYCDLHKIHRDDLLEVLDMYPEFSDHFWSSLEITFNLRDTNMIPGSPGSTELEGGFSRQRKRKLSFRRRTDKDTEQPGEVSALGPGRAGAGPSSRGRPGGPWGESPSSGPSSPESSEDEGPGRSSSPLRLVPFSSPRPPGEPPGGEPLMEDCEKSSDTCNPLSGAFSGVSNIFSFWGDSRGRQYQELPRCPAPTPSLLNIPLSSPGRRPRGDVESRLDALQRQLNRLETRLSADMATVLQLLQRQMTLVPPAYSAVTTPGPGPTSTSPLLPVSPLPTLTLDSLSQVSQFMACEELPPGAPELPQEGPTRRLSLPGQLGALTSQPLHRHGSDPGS

MRT (in vivo [2]): 4.6 h | AUC(0-inf) [3]: 5.51 µM·h | IC50 [4]: < 0.003 µM | Vd [5]: 7 L/kg | microsomal CLint (in vitro [6]): < 25 µL/min/mg | solubility [7]: > 2000 µg/mL | microsomal CLint (in vitro [8]): 90 µL/min/mg | clearance (in vivo [9]): 20 mL/min/kg | AUC(0-inf) [10]: 59.2 µM·h | Cmax [13]: 351 nM | bioavailability [16]: 46% | bioavailability (in vivo [19]): 57% | CLH [21]: 6 µL/min/mg | half-life [22]: 3.4 h | concentration at 24 h (in vivo [23]): 218 nM | MRT [24]: 28 h | inhibition [25]: 100% | AUC(0-inf) (in vivo [26]): 3.87 µM·h | AUC(0-inf) [27]: 15 µM·h | clearance [29]: 2.2 mL/min/kg | concentration at 4 h [32]: 108 nM
SMILES: N[C@H](CO)Cn1ccc(-c2ccc(Oc3ncc(-c4cc[nH]n4)cc3F)cc2)n1
IC50 [1]: > 30 µM | inhibition in vivo at 0.3 mg/kg [11]: 93% | Activity (Mus musculus [12]): Active | IC50 [14]: 27 µM | Activity (Mus musculus [15]): Active | inhibition in vivo at 0.03 mg/kg [17]: 74% | Activity (Mus musculus [18]): Active | inhibition in vivo at 3 mg/kg [20]: 97% | Activity (Mus musculus [28]): Active | IC50 [30]: > 30 µM | inhibition in vivo at 0.03 mg/kg [31]: 52%
